In ChEMBL document CHEMBL4706479, “Novel Aryloxyethyl Derivatives of 1-(1-Benzoylpiperidin-4-yl)methanamine as the Extracellular Regulated Kinases 1/2 (ERK1/2) Phosphorylation-Preferring Serotonin 5-HT Receptor-Biased Agonists with Robust Antidepressant-like Activity” (J Med Chem, 2019):
≈ marks a conversion by molar mass, not a printed value. Calls of active or inactive are those of the source. The calls are words filed in the database; no cut-off is given here.

Columns and labels:
[1] = system: Rattus norvegicus; test: Antidepressant-like activity in Wistar rat assessed as serum concentration causing 50% reduction in immobility time after oral administration of compound and measured after 15 mins by Porsolt-forced swim test; type: functional
[2] = biological target: CYP2D6 (Homo sapiens, UniProt P10635); test: Inhibition of human recombinant CYP2D6 at 10 uM relative to control; type: ADME
[3] = biological target: D(1A) dopamine receptor (Homo sapiens) (UniProt P21728); test: Inhibition of dopamine D1 receptor (unknown origin) at 10 uM relative to control
Chain of D(1A) dopamine receptor (Homo sapiens) (P21728 whole entry): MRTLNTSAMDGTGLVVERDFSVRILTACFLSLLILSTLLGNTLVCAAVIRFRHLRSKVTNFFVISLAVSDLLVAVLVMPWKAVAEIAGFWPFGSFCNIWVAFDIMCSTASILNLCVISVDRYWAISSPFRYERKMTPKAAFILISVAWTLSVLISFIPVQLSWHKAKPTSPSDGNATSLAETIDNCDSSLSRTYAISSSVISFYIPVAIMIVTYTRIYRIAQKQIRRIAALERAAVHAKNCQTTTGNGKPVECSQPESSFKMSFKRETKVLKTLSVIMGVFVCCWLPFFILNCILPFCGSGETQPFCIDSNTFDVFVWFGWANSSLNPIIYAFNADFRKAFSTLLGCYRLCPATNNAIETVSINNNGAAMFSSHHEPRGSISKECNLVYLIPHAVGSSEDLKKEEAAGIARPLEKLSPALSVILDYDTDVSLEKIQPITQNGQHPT

[4] = Toxicity in Wistar rat assessed as effect on flat body posture at 0.04 to […], po observed after 60 mins post treatment; type: organism-based; details: in vivo, 1 h, dose 0.04-2.5 mg/kg
[5] = Permeability of compound across basolateral to apical side in human Caco-2 cells at pH 7.4; type: ADME, cell-based; details: Caco-2, pH 7.4, read-out: permeability
[6] = biological target: Sodium-dependent noradrenaline transporter (Homo sapiens) (UniProt P23975); test: Inhibition of norepinephrine transporter (unknown origin) at 10 uM relative to control
Chain of Sodium-dependent noradrenaline transporter (Homo sapiens) (P23975 whole entry): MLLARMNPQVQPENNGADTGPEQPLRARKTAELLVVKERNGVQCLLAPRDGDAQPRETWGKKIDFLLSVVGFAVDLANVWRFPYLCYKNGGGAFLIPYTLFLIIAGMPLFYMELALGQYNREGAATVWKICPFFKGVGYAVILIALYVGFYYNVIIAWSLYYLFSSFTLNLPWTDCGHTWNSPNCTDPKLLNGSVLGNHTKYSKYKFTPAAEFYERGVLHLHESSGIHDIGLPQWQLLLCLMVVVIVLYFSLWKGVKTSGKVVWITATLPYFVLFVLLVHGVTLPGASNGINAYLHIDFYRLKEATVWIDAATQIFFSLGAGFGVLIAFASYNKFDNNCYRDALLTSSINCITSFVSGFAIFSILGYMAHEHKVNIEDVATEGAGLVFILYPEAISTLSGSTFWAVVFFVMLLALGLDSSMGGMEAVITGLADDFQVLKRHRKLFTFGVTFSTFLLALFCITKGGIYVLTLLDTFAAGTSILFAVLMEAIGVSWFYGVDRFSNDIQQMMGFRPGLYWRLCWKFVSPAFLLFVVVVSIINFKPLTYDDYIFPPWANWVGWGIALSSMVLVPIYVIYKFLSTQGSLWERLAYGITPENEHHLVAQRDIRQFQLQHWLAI

[7] = Intrinsic clearance in human liver microsomes at 0.1 uM; type: ADME, Microsome; details: read-out: CLH
[8] = Aqueous solubility of compound in pH 7.4 PBS buffer at 200 uM; type: physicochemical
[9] = biological target: Cannabinoid receptor 1 (Homo sapiens) (UniProt P21554); test: Inhibition of cannabinoid receptor 1 (unknown origin) at 10 uM relative to control
[10] = biological target: 5-hydroxytryptamine receptor 1B (Homo sapiens) (UniProt P28222); test: Inhibition of 5-HT1B (unknown origin) at 10 uM relative to control
Chain of 5-hydroxytryptamine receptor 1B (Homo sapiens) (P28222 whole entry): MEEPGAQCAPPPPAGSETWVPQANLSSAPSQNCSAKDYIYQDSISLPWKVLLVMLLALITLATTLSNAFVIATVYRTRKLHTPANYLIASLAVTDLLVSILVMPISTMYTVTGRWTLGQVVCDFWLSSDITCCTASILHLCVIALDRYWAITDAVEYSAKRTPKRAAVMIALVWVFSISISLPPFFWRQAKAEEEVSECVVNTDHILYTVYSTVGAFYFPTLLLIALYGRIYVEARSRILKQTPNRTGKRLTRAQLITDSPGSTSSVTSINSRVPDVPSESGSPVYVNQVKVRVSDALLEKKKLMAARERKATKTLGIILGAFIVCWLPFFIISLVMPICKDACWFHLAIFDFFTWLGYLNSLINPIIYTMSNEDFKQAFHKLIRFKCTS

[11] = biological target: Prostaglandin G/H synthase 2 (Homo sapiens) (UniProt P35354); test: Inhibition of COX2 (unknown origin) at 10 uM relative to control
Chain of Prostaglandin G/H synthase 2 (Homo sapiens) (P35354 whole entry): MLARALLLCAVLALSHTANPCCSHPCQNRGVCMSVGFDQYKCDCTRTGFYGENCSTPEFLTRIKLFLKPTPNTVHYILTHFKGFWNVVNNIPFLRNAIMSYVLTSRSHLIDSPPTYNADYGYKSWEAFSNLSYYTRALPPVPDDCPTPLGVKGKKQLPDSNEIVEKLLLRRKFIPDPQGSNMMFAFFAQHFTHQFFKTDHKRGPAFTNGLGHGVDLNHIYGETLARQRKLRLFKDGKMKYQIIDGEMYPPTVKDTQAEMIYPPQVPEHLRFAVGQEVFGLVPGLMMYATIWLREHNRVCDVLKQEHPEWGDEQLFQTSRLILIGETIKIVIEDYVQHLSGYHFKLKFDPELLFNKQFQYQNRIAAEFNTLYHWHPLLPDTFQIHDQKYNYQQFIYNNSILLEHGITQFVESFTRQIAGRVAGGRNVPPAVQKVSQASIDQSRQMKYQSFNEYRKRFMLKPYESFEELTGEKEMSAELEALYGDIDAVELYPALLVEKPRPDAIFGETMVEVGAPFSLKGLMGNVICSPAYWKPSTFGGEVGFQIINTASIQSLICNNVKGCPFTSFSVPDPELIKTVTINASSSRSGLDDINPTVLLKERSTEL

[12] = species: Homo sapiens; test: Inhibition of sodium channel site2 (unknown origin) at 10 uM relative to control
[13] = system: Rattus norvegicus; test: Antidepressant-like activity in Wistar rat assessed as reduction in immobility time at […], po administered 15 mins prior to testing and measured for 5 mins test period by Porsolt-forced swim test; type: functional, organism-based; details: time 20.0 min
[14] = system: Rattus norvegicus; test: Antidepressant-like activity in Wistar rat assessed as minimum effective dose causing reduction in immobility time after oral administration with compound 15 mins prior to testing and measured for 5 mins test period by Porsolt-forced swim test; type: functional; details: 20 min, read-out: MED
[15] = biological target: Adenosine receptor A2a (Homo sapiens) (UniProt P29274); test: Inhibition of adenosine receptor A2A (unknown origin) at 10 uM relative to control
[16] = biological target: cGMP-inhibited 3',5'-cyclic phosphodiesterase 3A (Homo sapiens) (UniProt Q14432); test: Inhibition of PDE3A (unknown origin) at 10 uM relative to control
Chain of cGMP-inhibited 3',5'-cyclic phosphodiesterase 3A (Homo sapiens) (Q14432 whole entry): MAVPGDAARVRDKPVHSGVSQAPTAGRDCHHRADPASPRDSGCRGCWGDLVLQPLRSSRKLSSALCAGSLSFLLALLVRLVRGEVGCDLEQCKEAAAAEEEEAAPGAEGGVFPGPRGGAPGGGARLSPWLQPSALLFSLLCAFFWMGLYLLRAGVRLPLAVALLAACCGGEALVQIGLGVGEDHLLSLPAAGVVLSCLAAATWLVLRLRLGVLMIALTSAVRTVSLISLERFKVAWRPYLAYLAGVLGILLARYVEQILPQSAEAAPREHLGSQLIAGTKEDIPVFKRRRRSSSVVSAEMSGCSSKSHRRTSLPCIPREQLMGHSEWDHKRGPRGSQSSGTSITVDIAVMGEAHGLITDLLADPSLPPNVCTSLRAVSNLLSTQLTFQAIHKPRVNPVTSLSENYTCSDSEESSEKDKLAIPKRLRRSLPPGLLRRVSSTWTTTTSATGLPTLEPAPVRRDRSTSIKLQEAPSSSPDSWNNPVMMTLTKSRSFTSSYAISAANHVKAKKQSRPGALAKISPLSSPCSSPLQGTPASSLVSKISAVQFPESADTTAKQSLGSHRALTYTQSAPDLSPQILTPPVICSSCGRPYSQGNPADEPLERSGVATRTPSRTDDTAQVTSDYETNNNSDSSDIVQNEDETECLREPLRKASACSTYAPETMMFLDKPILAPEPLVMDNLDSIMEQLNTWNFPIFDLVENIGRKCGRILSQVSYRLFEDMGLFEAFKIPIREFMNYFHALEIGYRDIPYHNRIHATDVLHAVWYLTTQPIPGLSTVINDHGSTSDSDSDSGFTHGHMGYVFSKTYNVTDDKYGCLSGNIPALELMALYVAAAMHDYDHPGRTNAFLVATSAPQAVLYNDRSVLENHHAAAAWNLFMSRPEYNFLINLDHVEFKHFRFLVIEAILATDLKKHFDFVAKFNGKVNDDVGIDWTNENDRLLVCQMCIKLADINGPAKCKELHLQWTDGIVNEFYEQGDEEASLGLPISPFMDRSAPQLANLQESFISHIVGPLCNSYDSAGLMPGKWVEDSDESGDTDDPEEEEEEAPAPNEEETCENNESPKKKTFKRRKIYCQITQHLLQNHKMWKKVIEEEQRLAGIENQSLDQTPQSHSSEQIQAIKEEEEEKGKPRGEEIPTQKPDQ

[17] = biological target: Cannabinoid receptor 2 (Homo sapiens) (UniProt P34972); test: Inhibition of cannabinoid receptor 2 (unknown origin) at 10 uM relative to control
[18] = biological target: Mu-type opioid receptor (Homo sapiens) (UniProt P35372); test: Inhibition of mu opioid receptor (unknown origin) at 10 uM relative to control
Chain of Mu-type opioid receptor (Homo sapiens) (P35372 whole entry): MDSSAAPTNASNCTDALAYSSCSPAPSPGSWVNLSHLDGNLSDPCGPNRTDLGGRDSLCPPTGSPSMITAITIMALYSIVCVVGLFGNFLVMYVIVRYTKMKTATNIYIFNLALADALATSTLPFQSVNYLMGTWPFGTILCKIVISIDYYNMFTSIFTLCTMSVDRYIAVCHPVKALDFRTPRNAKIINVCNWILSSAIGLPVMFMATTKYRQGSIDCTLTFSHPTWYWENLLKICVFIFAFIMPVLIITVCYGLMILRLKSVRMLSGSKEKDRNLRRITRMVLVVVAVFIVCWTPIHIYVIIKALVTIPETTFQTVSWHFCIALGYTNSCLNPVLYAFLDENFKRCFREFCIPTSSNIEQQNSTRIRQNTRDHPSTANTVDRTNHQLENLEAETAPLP

[19] = system: Rattus norvegicus; test: Antidepressant-like activity in Wistar rat assessed as maximum effective dose causing reduction in immobility time after oral administration with compound 60 mins prior to testing and measured for 5 mins test period by Porsolt-forced swim test; type: functional; details: time 65 min; 1.083 h
[20] = biological target: Histamine H1 receptor (Homo sapiens) (UniProt P35367); test: Displacement of [3H]-pyrilamine from human recombinant histamine H1 receptor stably expressed in CHO-K1 cell membranes at 1 uM measured after 60 mins by microbeta2 scintillation counting analysis relative to control; details: Cell membrane
Chain of Histamine H1 receptor (Homo sapiens) (P35367 whole entry): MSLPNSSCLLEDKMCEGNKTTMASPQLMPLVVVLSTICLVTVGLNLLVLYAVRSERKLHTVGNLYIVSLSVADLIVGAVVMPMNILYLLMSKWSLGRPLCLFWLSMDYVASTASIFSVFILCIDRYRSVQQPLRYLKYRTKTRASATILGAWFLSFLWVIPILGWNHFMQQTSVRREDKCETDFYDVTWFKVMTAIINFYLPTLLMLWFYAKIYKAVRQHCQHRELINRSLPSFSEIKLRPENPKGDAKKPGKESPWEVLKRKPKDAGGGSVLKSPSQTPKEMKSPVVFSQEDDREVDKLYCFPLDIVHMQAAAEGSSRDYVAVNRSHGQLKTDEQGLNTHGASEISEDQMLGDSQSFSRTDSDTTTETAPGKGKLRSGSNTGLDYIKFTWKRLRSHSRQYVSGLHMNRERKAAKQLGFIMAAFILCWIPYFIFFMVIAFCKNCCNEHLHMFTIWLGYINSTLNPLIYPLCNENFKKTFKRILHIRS

[21] = Tmax in Wistar rat at […], po measured after 60 mins by HPLC analysis; type: ADME, organism-based; details: in vivo, dose 2.5 mg/kg
[22] = biological target: Histamine H1 receptor (Homo sapiens) (UniProt P35367); test: Inhibition of histamine H1 receptor (unknown origin) at 10 uM relative to control
[23] = biological target: D(3) dopamine receptor (Homo sapiens) (UniProt P35462); test: Inhibition of dopamine D3 receptor (unknown origin) at 1 uM relative to control
Chain of D(3) dopamine receptor (Homo sapiens) (P35462 whole entry): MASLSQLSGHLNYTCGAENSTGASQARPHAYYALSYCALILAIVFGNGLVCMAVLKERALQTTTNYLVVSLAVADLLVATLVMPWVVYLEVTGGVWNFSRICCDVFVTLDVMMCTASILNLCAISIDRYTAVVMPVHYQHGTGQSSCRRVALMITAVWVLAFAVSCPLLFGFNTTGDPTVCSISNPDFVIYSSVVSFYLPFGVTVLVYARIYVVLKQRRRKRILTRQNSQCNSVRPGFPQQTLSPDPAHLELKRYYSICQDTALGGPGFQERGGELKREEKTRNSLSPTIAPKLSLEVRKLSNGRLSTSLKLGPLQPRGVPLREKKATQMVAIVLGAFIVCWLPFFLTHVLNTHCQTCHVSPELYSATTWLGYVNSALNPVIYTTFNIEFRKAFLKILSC

[24] = Effect on spontaneous locomotor activity in Wistar rat at 0.04 to […], po after 60 mins in presence of 5-HT1A antagonist WAY100635 by open field test; type: organism-based; details: in vivo, 1 h, dose 0.04-2.5 mg/kg
[25] = biological target: Acetylcholinesterase (Homo sapiens) (UniProt P22303); test: Inhibition of AChE (unknown origin) at 10 uM relative to control
[26] = biological target: 5-hydroxytryptamine receptor 6 (Homo sapiens) (UniProt P50406); test: Inhibition of 5-HT6 (unknown origin) at 1 uM relative to control
Chain of 5-hydroxytryptamine receptor 6 (Homo sapiens) (P50406 whole entry): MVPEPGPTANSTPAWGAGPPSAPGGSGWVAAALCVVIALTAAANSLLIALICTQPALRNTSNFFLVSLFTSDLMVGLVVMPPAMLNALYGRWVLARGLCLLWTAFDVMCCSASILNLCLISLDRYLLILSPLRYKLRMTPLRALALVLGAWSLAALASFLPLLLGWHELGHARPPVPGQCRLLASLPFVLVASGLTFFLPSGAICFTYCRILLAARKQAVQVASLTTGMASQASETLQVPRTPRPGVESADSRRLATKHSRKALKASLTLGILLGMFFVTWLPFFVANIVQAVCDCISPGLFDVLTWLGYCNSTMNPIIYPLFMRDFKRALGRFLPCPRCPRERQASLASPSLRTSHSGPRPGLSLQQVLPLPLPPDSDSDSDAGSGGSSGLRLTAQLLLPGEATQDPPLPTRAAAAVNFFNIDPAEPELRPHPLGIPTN

[27] = biological target: Muscarinic acetylcholine receptor M1 (Homo sapiens) (UniProt P11229); test: Displacement of [3H]-scopolamine from human recombinant muscarinic M1 receptor stably expressed in CHO-K1 cell membranes at 1 uM measured after 120 mins by microbeta2 scintillation counting analysis relative to control; details: Cell membrane

## O=C(c1ccc(F)c(Cl)c1)N1CCC(F)(CNCCOc2ccccn2)CC1
[1]
  EC: 6.76 ng/mL
[2]
  inhibition at 10 µM: 15.9%
[3]
  inhibition: 38.2%
[4]
  Activity: Non-Toxic
[5]
  Papp B→A: 22.4 ×10⁻⁶ cm/s
[6]
  inhibition: -2%
[7]
  microsomal CLint at 0.1 µM: < 115 µL/min/mg
[8]
  solubility at 200 µM: 192 µM (≈ 78.8 µg/mL)
[9]
  inhibition: 0.4%
[10]
  inhibition: -9.1%
[11]
  inhibition: -9.2%
[12]
  inhibition: 48.8%
[13]
  Activity: Active
[14]
  minimal effective dose: 0.16 mg/kg
[15]
  inhibition: 11.8%
[16]
  inhibition: -3.9%
[17]
  inhibition: -3.1%
[18]
  inhibition: 42.9%
[19]
  ED: 2.5 mg/kg
[20]
  Activity: < 50%
[21]
  Tmax at 1 h: 15 min
[22]
  inhibition: -0.5%
[23]
  inhibition: 39.1%
[24]
  Activity: Non-Toxic
[25]
  inhibition: -2.9%
[26]
  inhibition: 12.1%
[27]
  Activity: < 50%
